We go through eight compounds from patent US9884818B2, “Sulphamoylpyrrolamide derivatives and the use thereof as medicaments for the treatment of hepatitis B” (Janssen Sciences Ireland UC, priority 2013, dated 2018).

One series relates to HepG2 cells. The experiment in a line: Cytotoxicity in HepG2 cells, Resazurin viability assay. Conditions: read-out: HepG2 4 days CC50; HepG2 cells, incubated for 4 days, Resazurin assay.
The test system of series [1] is HBV. The series can be described thus: Anti-HBV activity, HepG2.117 inducibly HBV producing cell line (Tet-off), intracellular HBV DNA by realtime PCR. The class given is cell-based. Conditions: HepG2.117 cells, 3 days of treatment, intracellular HBV DNA, read-out: HepG2 117 EC50.
The test system of series [2] is HBV. The experiment in a line: Anti-HBV activity, HepG2.2.15 stable transfected cell line, HBV DNA from secreted virions by realtime PCR. Conditions: HepG2.2.15 cells, 6 days of treatment, HBV DNA from secreted virions, read-out: HepG2 2.15 EC50. It is filed as cell-based.
A short description of series [3]: Cytotoxicity in HepG2 cells, Resazurin viability assay. To be noted: human, HepG2 cells, HepG2 4 days CC50 (μM), incubated for 4 days, Resazurin assay.
The mark [4] stands for this setting: Hepatitis B virus, HepG2.117, 72 h.
[5] abbreviates: Hepatitis B virus, HepG2.2.15, 144 h.

As to `CCC(C)(NS(=O)(=O)c1cc(C(=O)Nc2cc(F)c(F)c(Cl)c2)n(C)c1)C(F)(F)F` (single isomer, unassigned) [Compound 165b, N-(3-chloro-4,5-difluoro-phenyl)-1-methyl-4-[[1-methyl-1-(trifluoro-methyl)propyl]sulfamoyl]pyrrole-2-carboxamide], the CC50 (usually the concentration that lowers cell viability or growth by half) with HepG2 cells worked out at 4800 nM. The EC50 (usually the concentration needed to bring the measured effect to its halfway point) in the series on HBV [1] is 20 nM; with HBV [2], 120 nM.
For `Cn1cc(S(=O)(=O)NC2CCC(F)(F)C2)cc1C(=O)Nc1cc(F)c(F)c(Cl)c1` (single isomer, unassigned) [Compound 166b, N-(3-Chloro-4,5-difluorophenyl)-4-[(3,3-difluorocyclopentyl)sulfamoyl]-1-methyl-1H-pyrrole-2-carboxamide], the CC50 in the series on HepG2 cells came to 21300 nM. For the same compound, the EC50 in the series on HBV [1] came to 170 nM; in the series with HBV [2], 310 nM.
On to `CC(CC(F)(F)F)NS(=O)(=O)c1cc(C(=O)Nc2cc(F)c(F)c(Cl)c2)n(C)c1` (single isomer, unassigned) [Compound 169b, N-(3-Chloro-4,5-difluorophenyl)-1-methyl-4-[(3,3,3-trifluoro-1-methylpropyl)sulfamoyl]-1H-pyrrole-2-carboxamide], for which the half-maximal cytotoxic concentration (CC50) in the series on HepG2 cells came out at 17100 nM. Also, the EC50 came out at 30 nM in the series on HBV [1] and 40 nM in the series with HBV [2].
As for `CC(NS(=O)(=O)c1cc(C(=O)Nc2ccc(F)c(C#N)c2)n(C)c1)C(F)F` (single isomer, unassigned) [Compound 200b, N-(3-Cyano-4-fluorophenyl)-4-{[2,2-difluoro-1-methylethyl]sulfamoyl}-1-methyl-1H-pyrrole-2-carboxamide], the CC50 with HepG2 cells was more than 25000 nM. Moreover, the EC50 with HBV [1] is 100 nM; in the series on HBV [2] it was 90 nM.
Take `Cn1cc(S(=O)(=O)NC2(C(F)(F)F)CCOC2)cc1C(=O)Nc1ccc(F)c(C#N)c1` (single isomer, unassigned) [Compound 228b, N-(3-Cyano-4-fluorophenyl)-1-methyl-4-{[3-(trifluoromethyl)tetrahydrofuran-3-yl]sulfamoyl}-1H-pyrrole-2-carboxamide]: in the series with HepG2 cells, the CC50 was more than 25000 nM. For the same compound, in the series with HBV [2], the EC50 came to 30 nM.
Regarding `Cn1cc(S(=O)(=O)NC2CCCC2(F)F)cc1C(=O)Nc1ccc(F)c(Cl)c1F` (single isomer, unassigned) [Compound 236b, N-(3-Chloro-2,4-difluorophenyl)-4-{[2,2-difluorocyclopentyl]sulfamoyl}-1-methyl-1H-pyrrole-2-carboxamide], the CC50 with HepG2 cells is more than 25000 nM. For the same compound, the EC50 with HBV [1] amounted to 50 nM; in the series on HBV [2], 60 nM.
For the compound `C[C@@H](NS(=O)(=O)c1cn(C)c(C(=O)Nc2cc(Cl)c(F)c(C#N)c2)c1F)C(F)(F)F` [Compound 313, N-(3-chloro-5-cyano-4-fluoro-phenyl)-3-fluoro-1-methyl-4-[[(1R)-2,2,2-trifluoro-1-methyl-ethyl]sulfamoyl]pyrrole-2-carboxamide], the CC50 at 4 days in series [3] was more than 25 µM. The half-maximal effective concentration (EC50) with HBV [1] (setting [4]) came to 50 nM; in the series on HBV [2] (setting [5]), 20 nM.
Compound `Cc1c(S(=O)(=O)N[C@H](C)C(F)(F)F)c(C#N)c(C(=O)Nc2ccc(F)c(C#N)c2)n1C` [Compound 316, 3-cyano-N-(3-cyano-4-fluoro-phenyl)-1,5-dimethyl-4-[[(1R)-2,2,2-trifluoro-1-methyl-ethyl]sulfamoyl]pyrrole-2-carboxamide] registered a CC50 at 4 days in series [3] of more than 25 µM. Besides, the EC50 in the series on HBV [1] (setting [4]) and in the series with HBV [2] (setting [5]) was 50 nM throughout.
